Reference: patent US20080287407A1, “Nitric Oxide Releasing Pyruvate Compounds, Compositions and Methods of Use” (NitroMed, Inc., priority 2003, published 2008)

melting point [°C]	Structure (SMILES)
76 to 77	CC(=O)C(=O)N[C@H](CO[N+](=O)[O-])c1ccccc1 [Example 4, N-[(1S)-2-(Nitrooxy)-1-phenylethyl]-2-oxopropanamide]
72 to 75	CC(=O)C(=O)N[C@H](CO[N+](=O)[O-])Cc1ccccc1 [Example 5, N-[(1S)-2-(Nitrooxy)-1-benzylethyl]-2-oxopropanamide]
